The assay deals with CD2F1 mice, P388/DHAQ leukemia ip, median survival T/C. Kind of assay: NCI In Vivo Anticancer Drug Screen. Data for tumor model P388 Leukemia resistant to Dihydroxy Anthracenedione; NSC 299195 (intraperitoneal) in CD2F1 (CDF1) mice. As to conditions: endpoint: median survival time, higher = longer survival. On the procedure: The antitumor activity of compounds was measured in mice bearing transplantable tumors. Survival or tumor size were measured and the results are expressed as the measurement made in the treated group (T) divided by the measurement made in the vehicle treated control group (C). The tumor model used in this assay is P388 Leukemia resistant to Dihydroxy Anthracenedione; NSC 299195 (intraperitoneal) in CD2F1 (CDF1) mice

Several values for one entry are separate records, joined by “and”; a condition that tells them apart may be missing. Identical values can stand only once. Toxic doses and inconclusive results are not listed.

Among the data in PubChem BioAssay AID326 (DTP/NCI, 2004) are T/C values, retold here.

`O=C(Nc1ccc(C2=NCCN2)cc1)c1ccc(C(=O)Nc2ccc(C3=NCCN3)cc2)c(Cl)c1`: the T/C is 94 % of control (dose: 16.2 mg/kg/injection, schedule: Q04DX003 (ip), vehicle: saline with Tween-80); 98 % of control (dose: 27.0 mg/kg/injection, schedule: Q04DX003 (ip), vehicle: saline with Tween-80); 97 % of control (dose: 45.0 mg/kg/injection, schedule: Q04DX003 (ip), vehicle: saline with Tween-80).

On to `CC(=O)N(C)c1ccc(Nc2cc(C)[nH]c3ccc4ncnc4c23)cc1`, for which the T/C is 98 % of control (dose: 19.4 mg/kg/injection, schedule: Q04DX002 (ip), vehicle: saline); 98 % of control (dose: 20.7 mg/kg/injection, schedule: Q04DX002 (ip), vehicle: saline); 94 % of control (dose: 32.4 mg/kg/injection, schedule: Q04DX002 (ip), vehicle: saline); 91 % of control (dose: 34.6 mg/kg/injection, schedule: Q04DX002 (ip), vehicle: saline); 116 % of control (dose: 54.0 mg/kg/injection, schedule: Q04DX002 (ip), vehicle: saline); 94 % of control (dose: 57.6 mg/kg/injection, schedule: Q04DX002 (ip), vehicle: saline). Also, the T/C is 108 % of control (dose: 96.0 mg/kg/injection, schedule: Q04DX002 (ip), vehicle: saline) and 98 % of control (dose: 160.0 mg/kg/injection, schedule: Q04DX002 (ip), vehicle: saline).

Turning to `CO[C@H](C(=O)[C@@H](O)[C@@H](C)O)[C@@H]1Cc2cc3cc(OC4CC(OC5CC(O)C(O)C(C)O5)C(O)C(C)O4)c(C)c(O)c3c(O)c2C(=O)[C@H]1OC1CC(OC2CC(OC3CC(C)(O)C(O)C(C)O3)C(O)C(C)O2)C(O)C(C)O1` (stereo partly specified), the T/C is 112 % of control (dose: 0.22 mg/kg/injection, schedule: Q01DX005 (ip), vehicle: clinical formulation); 110 % of control (dose: 0.36 mg/kg/injection, schedule: Q01DX005 (ip), vehicle: clinical formulation); 120 % of control (dose: 0.6 mg/kg/injection, schedule: Q01DX005 (ip), vehicle: clinical formulation); 123 % of control (dose: 1.0 mg/kg/injection, schedule: Q01DX005 (ip), vehicle: clinical formulation).

Regarding `CN(Cc1cnc2nc(N)nc(N)c2n1)c1ccc(C(=O)N[C@@H](CCC(=O)O)C(=O)O)cc1`, the T/C is, setting by setting: (dose: 8.64 mg/kg/injection, schedule: Q04DX003 (ip), vehicle: sodium bicarbonate) 161 % of control and 192 % of control; (dose: 14.4 mg/kg/injection, schedule: Q04DX003 (ip), vehicle: sodium bicarbonate) 168 % of control and 195 % of control; (dose: 24.0 mg/kg/injection, schedule: Q04DX003 (ip), vehicle: sodium bicarbonate) 108 % of control and 214 % of control; (dose: 40.0 mg/kg/injection, schedule: Q04DX003 (ip), vehicle: sodium bicarbonate) 92 % of control.

On to `O=C(O)CCCc1ccc(N(CCCl)CCCl)cc1`, for which the T/C reads like this: (dose: 2.59 mg/kg/injection, schedule: Q04DX002 (ip), vehicle: saline with Tween-80) 100 % of control; (dose: 4.32 mg/kg/injection, schedule: Q04DX002 (ip), vehicle: saline with Tween-80) 101 % of control; (dose: 7.2 mg/kg/injection, schedule: Q04DX002 (ip), vehicle: saline with Tween-80) 100 % of control; (dose: 12.0 mg/kg/injection, schedule: Q04DX002 (ip), vehicle: saline with Tween-80) 100 % of control; (dose: 20.0 mg/kg/injection, schedule: Q04DX002 (ip), vehicle: saline with Tween-80) 106 % of control.

Turning to `CC[C@@]1(O)C[C@H](OC2CC(N(C)C)C(OC3CC(O)C(OC4CCC(=O)C(C)O4)C(C)O3)C(C)O2)c2c(cc3c(c2O)C(=O)c2c(O)cccc2C3=O)[C@H]1C(=O)OC` (stereo partly specified), the T/C was 120 % of control (dose: 4.32 mg/kg/injection, schedule: Q04DX003 (ip), vehicle: saline) and 196 % of control (dose: 12.0 mg/kg/injection, schedule: Q04DX003 (ip), vehicle: saline).
